# Biological target: T1, Recombinant Human SSAO/VAP-1/AOC3 (Homo sapiens, UniProt Q16853)
# T1 construct: purchased R&D systems 3957-AO
# T1 sequence (Q16853 1-763): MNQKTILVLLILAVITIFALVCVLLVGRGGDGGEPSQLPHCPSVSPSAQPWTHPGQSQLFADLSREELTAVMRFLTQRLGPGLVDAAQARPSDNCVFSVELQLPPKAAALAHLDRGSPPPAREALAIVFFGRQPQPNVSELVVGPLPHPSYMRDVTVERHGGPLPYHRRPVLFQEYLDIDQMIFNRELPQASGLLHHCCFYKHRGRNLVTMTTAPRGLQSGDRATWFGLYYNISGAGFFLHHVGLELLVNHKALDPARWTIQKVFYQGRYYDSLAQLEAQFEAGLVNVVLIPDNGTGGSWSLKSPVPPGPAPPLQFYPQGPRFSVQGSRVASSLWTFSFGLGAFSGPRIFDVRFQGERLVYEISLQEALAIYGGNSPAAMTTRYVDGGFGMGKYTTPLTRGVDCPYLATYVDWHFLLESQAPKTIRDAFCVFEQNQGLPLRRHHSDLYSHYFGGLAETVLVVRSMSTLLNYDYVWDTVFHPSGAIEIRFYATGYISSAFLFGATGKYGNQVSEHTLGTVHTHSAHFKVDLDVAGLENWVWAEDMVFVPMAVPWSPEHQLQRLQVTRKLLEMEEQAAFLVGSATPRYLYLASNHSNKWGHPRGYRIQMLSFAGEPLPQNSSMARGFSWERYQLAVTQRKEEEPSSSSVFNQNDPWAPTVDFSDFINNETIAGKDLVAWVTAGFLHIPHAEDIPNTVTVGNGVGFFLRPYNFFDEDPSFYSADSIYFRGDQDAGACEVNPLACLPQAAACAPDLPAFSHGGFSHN
# Experiment: Human Semicarbazide-Sensitive Amine Oxidase (SSAO) Assay
# Format: biochemical
# Settings: recombinant enzyme, 30 minutes preincubation at 37° C., benzylamine substrate, Amplex Ultra Red/HRP fluorescence
# Description: Compounds were dissolved in DMSO to provide a Concentration Response Curve (CRC; at 500 times the final concentration) over a range of 6-10 dilutions.
# Recombinant Human SSAO/VAP-1/AOC3 (R&D systems; Catalog #3957-AO) was used to screen compound potency in vitro, according to previously described methods (J Pharmacol Exp Ther. 2013 November; 347(2):365-74). SSAO enzyme was suspended in 50 mM HEPES buffer to a working concentration of 2.5 μg/ml and 40 μL of this enzyme mixture was then added to each well of a F16 Black Maxisorp 96 well Plate (Nunc, Catalog #475515). Ten microliters of each test compound (at 5 times the final concentration) were added to each well, resulting in a final well volume of 50 μL of the enzyme and inhibitor mixture. The compounds were preincubated with the enzyme for 30 minutes at 37° C., prior to the addition of a 40 μL volume of Amplex Ultra Red (125 uM AUR; Molecular Probes, Catalog # A36006)/Horseradish peroxidase (2.5 U/ml HRP; Sigma-Aldrich Catalog # P8375) oxidase detection reagent containing cytochrome C ([…]; Sigma-Aldrich Catalog # C7752). Cytochrome C was included in the AUR/HRP detection mixture to reduce the background fluorescence that can occur via the spontaneous redox reaction between AUR and HRP. The SSAO enzyme reaction was then initiated by adding 10 μL of the SSAO substrate, benzylamine (Sigma-Aldrich Catalog # B5136), and SSAO activity was measured in kinetic mode over a 30-120 minute sampling period (excit. 544 nm; emit 590 nm; cut off 570 nm; medium gain) to obtain IC50 values for enzyme activity in each treatment well.
row,SMILES,IC50 [nM]
1,"COCC1CN(C(=O)C23CCC(c4ccc(OC/C(=C/F)CN)cc4)(CC2)CC3)C1 [Compound 2.55, (E)-(4-(4-((2-(aminomethyl)-3-fluoroallyl)oxy)phenyl)bicyclo [2.2.2]octan-1-yl)(3-(methoxymethyl)azetidin-1-yl)methanone]",≤ 10
2,"CC(C)OC1CN(C(=O)C23CCC(c4ccc(OC/C(=C/F)CN)cc4)(CC2)CC3)C1 [Compound 2.56, (E)-(4-(4-((2-(aminomethyl)-3-fluoroallyl)oxy)phenyl)bicyclo [2.2.2]octan-1-yl)(3-isopropoxyazetidin-1-yl)methanone]",≤ 10
3,"N#CC1CN(C(=O)C23CCC(c4ccc(OC/C(=C/F)CN)cc4)(CC2)CC3)C1 [Compound 2.57, (E)-1-(4-(4-((2-(aminomethyl)-3-fluoroallyl)oxy)phenyl)bicyclo[2.2.2]octane-1-carbonyl)azetidine-3-carbonitrile]",≤ 10
4,"NC/C(=C\F)COc1ccc(C23CCC(C(=O)NC45CCC(O)(CC4)CC5)(CC2)CC3)cc1 [Compound 2.58, (E)-4-(4-((2-(aminomethyl)-3-fluoroallyl)oxy)phenyl)-N-(4-hydroxybicyclo[2.2.2]octan-1-yl)bicyclo[2.2.2]octane-1-carboxamide]",≤ 10
5,"NC/C(=C\F)COc1ccc(C23CCC(C(=O)N(CCO)C4CC4)(CC2)CC3)cc1 [Compound 2.59, (E)-4-(4-((2-(aminomethyl)-3-fluoroallyl)oxy)phenyl)-N-cyclopropyl-N-(2-hydroxyethyl)bicyclo[2.2.2] octane-1-carboxamide]",≤ 10
6,"NC/C(=C\F)COc1ccc(C23CCC(C(=O)N4CC(F)(CO)C4)(CC2)CC3)cc1 [Compound 2.60, (E)-(4-(4-((2-(aminomethyl)-3-fluoroallyl)oxy)phenyl)bicyclo[2.2.2]octan-1-yl)(3-fluoro-3-(hydroxymethyl)azetidin-1-yl)methanone]",≤ 10
7,"NC/C(=C\F)COc1ccc(C23CCC(C(=O)NCCCO)(CC2)CC3)cc1 [Compound 2.61, (E)-4-(4-((2-(aminomethyl)-3-fluoroallyl)oxy)phenyl)-N-(3-hydroxypropyl)bicyclo[2.2.2] octane-1-carboxamide]",≤ 10
8,"N#CC1(CNC(=O)C23CCC(c4ccc(OC/C(=C/F)CN)cc4)(CC2)CC3)CCOCC1 [Compound 2.62, (E)-4-(4-((2-(aminomethyl)-3-fluoroallyl)oxy)phenyl)-N-((4-cyanotetrahydro-2H-pyran-4-yl)methyl)bicyclo[2.2.2]octane-1-carboxamide]",≤ 10
9,"NC/C(=C\F)COc1ccc(C23CCC(C(=O)NCC4(CO)CCOCC4)(CC2)CC3)cc1 [Compound 2.63, (E)-4-(4-((2-(aminomethyl)-3-fluoroallyl)oxy)phenyl)-N-((4-(hydroxymethyl)tetrahydro-2H-pyran-4-yl)methyl)bicyclo[2.2.2]octane-1-carboxamide]",≤ 10
10,"NC/C(=C\F)COc1ccc(C23CCC(C(=O)NC4CCCOC4)(CC2)CC3)cc1 (stereo not shown) [Compound 2.64, (E)-4-(4-((2-(aminomethyl)-3-fluoroallyl)oxy)phenyl)-N-(tetrahydro-2H-pyran-3-yl)bicyclo[2.2.2]octane-1-carboxamide]",≤ 10
11,"CC1(NC(=O)C23CCC(c4ccc(OC/C(=C/F)CN)cc4)(CC2)CC3)CCCOC1 (stereo not shown) [Compound 2.65, (E)-4-(4-((2-(aminomethyl)-3-fluoroallyl)oxy)phenyl)-N-(3-methyltetrahydro-2H-pyran-3-yl)bicyclo[2.2.2]octane-1-carboxamide]",≤ 10
12,"NC/C(=C\F)COc1ccc(C23CCC(C(=O)N4C5CCC4COC5)(CC2)CC3)cc1 [Compound 2.67, (E)-(4-(4-((2-(aminomethyl)-3-fluoroallyl)oxy)phenyl)bicyclo [2.2.2]octan-1-yl)(3-oxa-8-azabicyclo[3.2.1]octan-8-yl)methanone]",≤ 10

# More lines, now with the values ahead:
row,IC50 [nM],SMILES
1,≤ 10,"CC1(C)CC(NC(=O)C23CCC(c4ccc(OC/C(=C/F)CN)cc4)(CC2)CC3)CCO1 (stereo not shown) [Compound 2.42, (E)-4-(4-((2-(aminomethyl)-3-fluoroallyl)oxy)phenyl)-N-(2,2-dimethyltetrahydro-2H-pyran-4-yl)bicyclo[2.2.2]octane-1-carboxamide]"
2,≤ 10,"NC/C(=C\F)COc1ccc(C23CCC(C(=O)N4CC(CO)C4)(CC2)CC3)cc1 [Compound 2.43, (E)-(4-(4-((2-(aminomethyl)-3-fluoroallyl)oxy)phenyl)bicyclo [2.2.2]octan-1-yl)(3-(hydroxymethyl)azetidin-1-yl)methanone]"
3,≤ 10,"NC/C(=C\F)COc1ccc(C23CCC(C(=O)N4CC(OCCO)C4)(CC2)CC3)cc1 [Compound 2.44, (E)-(4-(4-((2-(aminomethyl)-3-fluoroallyl)oxy)phenyl)bicyclo [2.2.2]octan-1-yl)(3-(2-hydroxyethoxy)azetidin-1-yl)methanone]"
4,≤ 10,"Cc1cnc(CCNC(=O)C23CCC(c4ccc(OC/C(=C/F)CN)cc4)(CC2)CC3)o1 [Compound 2.45, (E)-4-(4-((2-(aminomethyl)-3-fluoroallyl)oxy)phenyl)-N-(2-(5-methyloxazol-2-yl)ethyl)bicyclo[2.2.2]octane-1-carboxamide]"
5,≤ 10,"NC/C(=C\F)COc1ccc(C23CCC(C(=O)NC4CCC(F)(F)CC4)(CC2)CC3)cc1 [Compound 2.46, (E)-4-(4-((2-(aminomethyl)-3-fluoroallyl)oxy)phenyl)-N-(4,4-difluorocyclohexyl)bicyclo [2.2.2]octane-1-carboxamide]"
6,≤ 10,"NC/C(=C\F)COc1ccc(C23CCC(C(=O)NCCO)(CC2)CC3)cc1 [Compound 2.47, (E)-4-(4-((2-(aminomethyl)-3-fluoroallyl)oxy)phenyl)-N-(2-hydroxyethyl)bicyclo[2.2.2] octane-1-carboxamide]"
7,≤ 10,"CC(C)(O)CNC(=O)C12CCC(c3ccc(OC/C(=C/F)CN)cc3)(CC1)CC2 [Compound 2.48, (E)-4-(4-((2-(aminomethyl)-3-fluoroallyl)oxy)phenyl)-N-(2-hydroxy-2-methylpropyl)bicyclo[2.2.2] octane-1-carboxamide]"
8,≤ 10,"CC(C)(C)NC(=O)C12CCC(c3ccc(OC/C(=C/F)CN)cc3)(CC1)CC2 [Compound 2.49, (E)-4-(4-((2-(aminomethyl)-3-fluoroallyl)oxy)phenyl)-N-(tert-butyl)bicyclo[2.2.2]octane-1-carboxamide]"
9,≤ 10,"NC/C(=C\F)COc1ccc(C23CCC(C(=O)N4CCCOCC4)(CC2)CC3)cc1 [Compound 2.50, (E)-(4-(4-((2-(aminomethyl)-3-fluoroallyl)oxy)phenyl)bicyclo [2.2.2]octan-1-yl)(1,4-oxazepan-4-yl)methanone]"
10,≤ 10,"COCCOCCOCCOCCNC(=O)C12CCC(c3ccc(OC/C(=C/F)CN)cc3)(CC1)CC2 [Compound 2.51, (E)-4-(4-((2-(aminomethyl)-3-fluoroallyl)oxy)phenyl)-N-(2,5,8,11-tetraoxatridecan-13-yl)bicyclo[2.2.2]octane-1-carboxamide]"
11,≤ 10,"CC1(C)CN(C(=O)C23CCC(c4ccc(OC/C(=C/F)CN)cc4)(CC2)CC3)C1 [Compound 2.52, (E)-(4-(4-((2-(aminomethyl)-3-fluoroallyl)oxy)phenyl)bicyclo [2.2.2]octan-1-yl)(3,3-dimethylazetidin-1-yl)methanone]"
12,≤ 10,"NC/C(=C\F)COc1ccc(C23CCC(C(=O)N4CC(O)(C(F)(F)F)C4)(CC2)CC3)cc1 [Compound 2.53, (E)-(4-(4-((2-(aminomethyl)-3-fluoroallyl)oxy)phenyl)bicyclo [2.2.2]octan-1-yl)(3-hydroxy-3-(trifluoromethyl)azetidin-1-yl)methanone]"
13,≤ 10,"CN(CCO)C(=O)C12CCC(c3ccc(OC/C(=C/F)CN)cc3)(CC1)CC2 [Compound 2.54, (E)-4-(4-((2-(aminomethyl)-3-fluoroallyl)oxy)phenyl)-N-(2-hydroxyethyl)-N-methylbicyclo[2.2.2]octane-1-carboxamide]"
